Measurements as given in publication PMC8179156, “Retrograde sulfur flow from glucosinolates to cysteine in Arabidopsis thaliana” (Proceedings of the National Academy of Sciences of the …, 2021).

Columns and labels:
Format in all cases: biochemical
AtOXP1 [1] = molecular target: T1, AtOXP1 (Arabidopsis thaliana, UniProt Q9FIZ7); test: Cys production in crude seedling extract, WT versus oxp1-1; details: native crude extract; stereochemistry of pCys not given
T1 construct: gene OXP1; native enzyme in crude protein extract of 14-d-old seedlings; assigned by comparison with oxp1-1 mutant
T1 sequence (Q9FIZ7 1-1266): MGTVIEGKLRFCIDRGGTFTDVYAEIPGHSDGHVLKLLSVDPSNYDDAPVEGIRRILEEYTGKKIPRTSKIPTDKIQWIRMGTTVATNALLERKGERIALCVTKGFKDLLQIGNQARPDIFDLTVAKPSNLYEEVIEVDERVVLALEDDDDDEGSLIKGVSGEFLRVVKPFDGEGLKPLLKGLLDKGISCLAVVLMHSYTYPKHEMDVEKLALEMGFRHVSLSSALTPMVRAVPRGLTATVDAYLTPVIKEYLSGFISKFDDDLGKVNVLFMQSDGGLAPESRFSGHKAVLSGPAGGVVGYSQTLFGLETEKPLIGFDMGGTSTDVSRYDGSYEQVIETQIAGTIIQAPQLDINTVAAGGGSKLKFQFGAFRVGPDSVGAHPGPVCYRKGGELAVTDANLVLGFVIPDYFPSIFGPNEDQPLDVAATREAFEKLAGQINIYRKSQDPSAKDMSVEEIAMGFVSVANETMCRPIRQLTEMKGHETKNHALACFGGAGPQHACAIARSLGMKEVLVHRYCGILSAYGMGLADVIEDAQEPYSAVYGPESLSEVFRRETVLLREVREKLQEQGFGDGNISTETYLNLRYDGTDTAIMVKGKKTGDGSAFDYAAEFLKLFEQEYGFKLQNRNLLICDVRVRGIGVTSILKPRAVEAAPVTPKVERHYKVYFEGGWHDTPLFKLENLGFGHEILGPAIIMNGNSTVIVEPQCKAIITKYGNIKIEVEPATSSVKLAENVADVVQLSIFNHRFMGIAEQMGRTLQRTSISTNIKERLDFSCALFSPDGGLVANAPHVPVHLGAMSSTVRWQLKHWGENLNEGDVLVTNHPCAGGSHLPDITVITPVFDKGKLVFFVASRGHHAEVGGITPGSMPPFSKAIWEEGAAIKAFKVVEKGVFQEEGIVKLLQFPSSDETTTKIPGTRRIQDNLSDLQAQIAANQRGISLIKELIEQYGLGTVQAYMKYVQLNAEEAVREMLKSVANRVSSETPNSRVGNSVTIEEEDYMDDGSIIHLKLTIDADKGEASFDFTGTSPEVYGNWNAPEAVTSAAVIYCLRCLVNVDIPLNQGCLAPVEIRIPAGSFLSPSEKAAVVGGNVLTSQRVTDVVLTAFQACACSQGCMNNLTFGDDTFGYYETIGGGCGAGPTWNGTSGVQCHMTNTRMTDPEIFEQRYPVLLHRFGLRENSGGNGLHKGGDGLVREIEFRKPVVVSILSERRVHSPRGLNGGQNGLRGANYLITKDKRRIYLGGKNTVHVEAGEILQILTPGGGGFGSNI

AtBGLU28-His6 = molecular target: T2, AtBGLU28-His6 (Arabidopsis thaliana, UniProt Q4V3B3); test: D-glucose release, extract of expressing N. benthamiana leaves; details: crude extract; His6-GFP control at background
T2 construct: gene BGLU28; C-terminal His6 tag; transient expression in Nicotiana benthamiana leaves; crude protein extract
T2 sequence (Q4V3B3 22-582): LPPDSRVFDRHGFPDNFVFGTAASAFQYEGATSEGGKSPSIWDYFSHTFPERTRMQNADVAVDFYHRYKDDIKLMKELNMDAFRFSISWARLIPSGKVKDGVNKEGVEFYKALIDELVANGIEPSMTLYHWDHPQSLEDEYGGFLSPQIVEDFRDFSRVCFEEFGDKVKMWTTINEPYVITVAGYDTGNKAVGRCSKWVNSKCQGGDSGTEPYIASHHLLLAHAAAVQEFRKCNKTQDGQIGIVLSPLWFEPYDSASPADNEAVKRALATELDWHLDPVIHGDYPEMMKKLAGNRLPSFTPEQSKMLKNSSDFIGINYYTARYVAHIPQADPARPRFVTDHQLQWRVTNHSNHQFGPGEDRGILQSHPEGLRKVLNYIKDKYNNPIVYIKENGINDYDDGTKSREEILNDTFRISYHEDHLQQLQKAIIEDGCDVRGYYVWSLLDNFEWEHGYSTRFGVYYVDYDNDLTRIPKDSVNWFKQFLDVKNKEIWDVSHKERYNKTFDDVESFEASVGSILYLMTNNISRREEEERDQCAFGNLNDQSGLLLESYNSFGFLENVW

AtTGG1-His6 = molecular target: T3, AtTGG1-His6 (Arabidopsis thaliana, UniProt P37702); test: as above; details: crude extract; His6-GFP control at background
T3 construct: gene TGG1; His6 tag (printed AtTGG1-His6); transient expression in Nicotiana benthamiana leaves; crude protein extract

AtOXP1 [2] = molecular target: T1, AtOXP1; test: Glu production in crude seedling extract, WT versus oxp1-1; details: native crude extract; stereochemistry of 5OP not given

T3 sequence (P37702 20-541): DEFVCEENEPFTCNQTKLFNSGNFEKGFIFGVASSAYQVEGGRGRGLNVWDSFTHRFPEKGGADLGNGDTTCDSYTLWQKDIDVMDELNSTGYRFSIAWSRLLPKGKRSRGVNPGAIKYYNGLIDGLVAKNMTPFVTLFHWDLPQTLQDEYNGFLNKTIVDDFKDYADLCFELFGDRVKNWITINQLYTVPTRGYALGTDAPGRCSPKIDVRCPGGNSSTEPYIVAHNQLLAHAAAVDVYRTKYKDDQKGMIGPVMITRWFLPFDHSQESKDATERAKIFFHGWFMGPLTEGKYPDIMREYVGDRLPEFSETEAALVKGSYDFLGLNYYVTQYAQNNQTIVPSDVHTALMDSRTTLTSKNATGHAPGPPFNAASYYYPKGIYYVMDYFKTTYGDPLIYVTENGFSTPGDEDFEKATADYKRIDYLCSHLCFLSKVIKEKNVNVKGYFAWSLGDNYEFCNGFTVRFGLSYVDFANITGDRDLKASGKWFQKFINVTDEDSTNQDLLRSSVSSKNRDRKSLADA

SMILES	Cys production in crude seedling extract, WT versus oxp1-1 (AtOXP1 [1])	D-glucose release, extract of expressing N. benthamiana leaves (AtBGLU28-His6)	D-glucose release, extract of expressing N. benthamiana leaves (AtTGG1-His6)	Glu production in crude seedling extract, WT versus oxp1-1 (AtOXP1 [2])
O=C1N[C@H](C(=O)O)CS1 [pCys, 1,3-thiazolidin-2-one-4-carboxylic acid]	supporting that AtOXP1 can hydrolyze pCys, as reported for OPases in other organisms			
O=S(=O)(O)O/N=C(/CCc1ccccc1)S[C@@H]1O[C@H](CO)[C@@H](O)[C@H](O)[C@H]1O [PhE, 2-Phenylethyl glucosinolate]		exhibited higher rates of hydrolysis against 4MTB, benzyl glucosinolate, and PhE	the extract containing AtTGG1-His6 hydrolyzed all the tested GLs at similar rates	
O=C1CC[C@@H](C(=O)O)N1 [5OP, 5-oxoproline]				lower rate of Cys production than the WT as observed for the Glu production from 5OP
CSCCCC/C(=N/OS(=O)(=O)O)S[C@@H]1O[C@H](CO)[C@@H](O)[C@H](O)[C@H]1O [4MTB, 4-Methylthio-n-butyl glucosinolate]		exhibited higher rates of hydrolysis against 4MTB, benzyl glucosinolate, and PhE	the extract containing AtTGG1-His6 hydrolyzed all the tested GLs at similar rates	
